Measured values: patent US20040122059A1, “PPAR-gamma ligands in the treatment of asthma and allergies” (The Penn State Research Foundation, priority 2002, published 2004)
“And” between values parts separate entries of the source, which are not always exact repeats. Equal entries are not always repeated.

Key:
[1] = system: TH2 cells; assay: Cytokine production by TH2-primed DO11.10 CD4+ T cells stimulated with PMA and ionomycin; format: cell-based, mouse; conditions: PGJ2 10 mM, CLA 5 mM, 72 h supernatant ELISA
Experimental: (§1) TH cell cultures. Lymph node and spleen cells from the DO11.10 TCR transgenic mice were removed and CD4 positive cells were isolated using the CD4 Immunocolumns and the manufacturer's instructions (Cedarlane labs, Homby, Canada). CD4 positive T cells (95-98% pure) were cultured in vitro with OVA and mitomycin C treated splenocytes from congenic mice. The cultures were incubated under neutral conditions (TH0 priming) or with rIL-4 and anti-IFN-γ antibodies (TH2 priming), or with rIL-12 (TH1 priming). After 4 days (4d) in culture the cells were collected and dead splenocytes were removed by centrifugation over histopaque. […] T cells were collected and recultured with rIL-2 (Pharmingen) for 3 d to expand the T cells. Cells were then collected, washed and stimulated for proliferation and cytokine synthesis with phorbal myristiyl acetate (PMA, Sigma, St. Louis, Mo.) and ionomycin (Sigma) in the presence of PJG2, conjugated linoleic acid (CLA) or control treated.
(§2) Measurement of lymphocyte proliferation and cytokine production. Th cells were cultured in 96 well plates for proliferation assays and 24 well plates for supernatants (Corning Costar, Corning, N.Y.). After 72 h, supernatants were collected for ELISAs. For proliferation assays, 0.4 μCi of [3H]thymidine (ICN, Costa Mesa, Calif.) was added to each well and the cells were incubated for an additional 18 h. Radioactive thymidine incorporation was determined by liquid scintillation using a Beta plate Counter. Mouse IL-2, IL-4, IL-5 and IFN-γ production were detected using ELISA kits from Pharmingen, following the instructions provided. The ELISA detection limits were 25 pg/ml IL-2, 62 pg/ml IL-4, 312 pg/ml IL-5, and 1000 pg/ml IFN-γ.
(§3) The present inventors decided to test if T cells are direct targets of PPAR-γ ligands. Purified CD4+T cells carrying the transgenic TcR for OVA (DO11.10) were cultured in vitro with OVA and mitomycin C treated splenocytes under neutral conditions (THO priming) or with rIL-4 and anti-IFN-γ antibodies (TH2 priming), or with rIL-12 (TH1 priming). Following 4 days of initial culture, cells were isolated and expanded in rIL-2. These expanded antigen specific T cells were stimulated in the presence or absence of PJG2, a PPAR-γ ligand and cells analyzed for proliferation and cytokine synthesis (Table 1). As previously characterized, cells initially stimulated under TH1 conditions (TH1 cells) secreted more IFN-γ and IL-2 and less IL-4 and IL-5 than those initially stimulated under TH2 conditions (TH2 cells). The TH1 and TH2 cells were greater than 95% CD4+and carried the transgenic TcR (data not shown). The PPAR-γ ligand PGJ2 regulated cytokine production in both TH1 and TH2 cells. PGJ2 inhibited IL-4 and IL-5 production in TH1 cells and inhibited IFN-γ, IL-2, and IL-5 production in TH2 cells (Table 1).

[2] = system: TH1 cells; assay: Cytokine production by TH1-primed DO11.10 CD4+ T cells stimulated with PMA and ionomycin; format: cell-based, mouse; conditions: PGJ2 10 mM, CLA 5 mM, 72 h supernatant ELISA
Experimental: as §1, §2, §3

[3] = system: murine model of allergic asthma; assay: OVA-induced allergic asthma, lung histopathology (asthma severity); format: in vivo, Balb/c mice; conditions: for Asthma severity (total histopathology score 0-6): 0.12 μM Ciglitazone/daily per mouse in diet from one week before induction
Experimental: Asthma was induced in the mice as described (Zhang et al. 1999. Immunity 11: 473). Briefly mice were injected intraperitoneally with 10 µg of OVA in Alum twice on day 1 and 5 of asthma induction (primed). On day 10, mice were challenged intranasally with OVA in sterile saline, every day for three days (40 μg total). In an alternative protocol the mice were only challenged intranasally (unprimed) with OVA for three consecutive days. Asthma induction was effective with or without the use of immunization (Alum and OVA injections). Two weeks after asthma induction (the day after the last intranasal challenge) the mice were sacrificed. Two different Ciglitazone treatments were done. […] The mice continued on these diets for the remainder of the study. […] Asthma severity. The lungs were fixed in formalin and sent to the Penn State University Animal Diagnostic Laboratories for sectioning and staining with hematoxylin and eosin. The sections were scored blindly on a scale of 0 to 3 for inflammation and 0-3 for epithelial thickening. […] The inflammation and epithelial scores for each section were added together for a total histopathology score ranging from 0-6. The results are presented as means±SEMs. […] In this model, mice are initially exposed to OVA in complex with Alum intraperitoneally, then challenged intranasally with OVA. This protocol usually leads to increased inflammatory cell infiltration into the lung, thickening of the epithelial cells lining the bronchioles of the lung, mucous secretion and in most cases, increased presence of circulating serum IgE. These symptoms highlight the predominant TH2 nature of this disease. Mice (Balb/c) were primed and with OVA intranasally as described in the Materials and Methods section. Twenty-four hours after the final intranasal challenge, mice were analyzed for immunological symptoms of allergic asthma. […]

[4] = system: splenocytes; assay: Antigen specific cytokine production and proliferation of splenocytes from treated mice restimulated in vitro with OVA; format: in vivo, Balb/c mice; conditions: for Proliferation: [3H]thymidine
Experimental: Measurement of lymphocyte proliferation and cytokine production. Th cells were cultured in 96 well plates for proliferation assays and 24 well plates for supernatants (Corning Costar, Corning, N.Y.). After 72 h, supernatants were collected for ELISAs. For proliferation assays, 0.4 μCi of [3H]thymidine (ICN, Costa Mesa, Calif.) was added to each well and the cells were incubated for an additional 18 h. Radioactive thymidine incorporation was determined by liquid scintillation using a Beta plate Counter. Mouse IL-2, IL-4, IL-5 and IFN-γ production were detected using ELISA kits from Pharmingen, following the instructions provided. […] Asthma was induced in the mice as described (Zhang et al. 1999. Immunity 11: 473). Briefly mice were injected intraperitoneally with 10 µg of OVA in Alum twice on day 1 and 5 of asthma induction (primed). On day 10, mice were challenged intranasally with OVA in sterile saline, every day for three days (40 μg total). In an alternative protocol the mice were only challenged intranasally (unprimed) with OVA for three consecutive days. Asthma induction was effective with or without the use of immunization (Alum and OVA injections). Two weeks after asthma induction (the day after the last intranasal challenge) the mice were sacrificed. Two different Ciglitazone treatments were done. […] The mice continued on these diets for the remainder of the study.

[5] = Primed mice, late Ciglitazone treatment

Row | Compound | IL-4 [1] [pg/mL] | IFN-γ [2] [pg/mL] | IL-2 [2] [pg/mL] | Asthma severity (total histopathology score 0-6) ([3]; PRIMED mice (OVA/Alum i.p., then intranasal OVA)) | Asthma severity (total histopathology score 0-6) ([3]; UNPRIMED mice, intranasal OVA challenge only) | Histopathology score of representative lung section (FIG. 1B) ([3]; representative lung, Ciglitazone treated) | IL-5 ([4]; Primed mice fed Ciglitazone) [pg/mL] | Proliferation ([4]; Primed mice fed Ciglitazone) [CPM] | IFN-γ [4, 5] [pg/mL] | IL-4 [4, 5] [pg/mL] | IL-5 [4, 5] [pg/mL] | Proliferation [4, 5] [CPM] | IFN-γ [1] [pg/mL] | IL-2 [1] [pg/mL] | IL-5 [1] [pg/mL] | IL-5 [2] [pg/mL]
1 | CCCCC/C=C/C=C1/C(=O)C=C[C@@H]1C/C=C\CCCC(=O)O [PGJ2, 15-deoxy-Delta(12,14)-prostaglandin J(2)] | 1861 ± 28 | 14370 ± 250 | 512 ± 1 |  |  |  |  |  |  |  |  |  |  |  |  | 
2 | CC1(COc2ccc(CC3SC(=O)NC3=O)cc2)CCCCC1 (stereo not shown) [Ciglitazone] |  |  |  | 1+/−0.3 and 1.0 ± 0.3 | 0.8+/−0.2 and 0.8±0.2 | 1 | 903 ± 87 | 10649 ± 492 | 4063 ± 170 | 395 ± 92 | 875 ± 79 | 10579 ± 1477 |  |  |  | 
3 | conjugated linoleic acid [CLA] | 1863 ± 62 | 14689 ± 370 | 522 ± 20 |  |  |  |  |  |  |  |  |  | 5592 ± 306 | 224 ± 4 | 240 ± 52 | 150 ± 6
